Measured values published in publication PMC7156458, “Synthetic biology based construction of biological activity-related library of fungal decalin-containing diterpenoid pyrones” (Nature Communications, 2020).
Where “and” joins values, the source holds several entries; their conditions need not be identical. Identical values can stand only once.

Legend:
[1] = tested on: ALDH-positive cells in MCF-7 cells; test: ALDH-positive cell population (ALDEFLUOR, flow cytometry); format: cell-based, human; details: for population of ALDH-positive cells / ALDH-positive cells ave (fold) / ALDH-positive cells ave / ALDH-positive cells (%): MCF-7, 1 μM; for ALDH-positive cells ave (fold) / ALDH-positive cells ave / ALDH-positive cells (%): 3 days; for ALDH-positive cells ave (fold): control = 1; for ALDH-positive cells ave: mean of 3, control 1.4; for ALDH-positive cells (%) / ALDH (+) Cell number (10^4 cells) / ALDH (-) Cell number (10^4 cells): single replicates; for ALDH (+) Cell number (10^4 cells) ave: 0 µM 1.61; for ALDH (-) Cell number (10^4 cells) ave: 0 µM 133.39; for ALDH (+) Cell number ave (fold) / ALDH (-) Cell number ave (fold): 0 µM = 1
Procedure: We also evaluated antiproliferative activity against cancer stem cells (CSCs), which are a small sub-population in tumour bulk identified in most cancer cells and clinical samples[52]. CSCs have been a major problem in cancer therapy because they are responsible for recurrence, metastasis and drug resistance to chemotherapeutic agents that affect proliferative cells[53]–[56]. Anti-CSC activity was evaluated by the inhibition of sphere-forming ability, a well-studied method to enrich the CSC-like population, and selective cytotoxicity against one of the most reliable CSC markers, aldehyde dehydrogenase (ALDH)-positive cells. […] Low-toxicity 16 was also added as a negative control. […] We next evaluated the three DDPs that inhibited mammosphere formations against ALDH-positive cells, a functional marker for breast CSCs. MCF-7 cells were treated with 1 μM of 11, 12 or 22, and the ALDH-positive cell population was analysed by using a fluorescence activated cell sorter (Supplementary Fig. 46b). […] Thus, for the first time, we successfully found DDPs with potent antiproliferative effects on the CSC-like population in MCF-7 cells, which may lead to new anti-CSC drugs.
Fig. 5 DDPs show anti-CSC activity in breast cancer cell line MCF-7. a Effect of DDPs on mammosphere formation. After the cells were cultured in the presence of 5 μM DDPs for 7 days, the number of mammospheres was microscopically counted and the percentage of mammosphere-forming cells was determined as mammosphere-forming efficiency (MFE; %). Data represent mean ± s.d. from three independent replicate experiments. P-values were calculated by a two-sided unpaired Student’s t-test, compared with control. b Micrographs show representative images of mammosphere formation from three independent replicate experiments using compound 11, 12, 16, 22. The scale bar, […]. c Effect of DDPs (1 μM, 3 days) on ALDH-positive cells in MCF-7 cells. Data represent mean ± s.d. from three independent replicate experiments. P-values were calculated by a two-sided unpaired Student’s t-test, compared with control. d Dose-dependent effect of compound 12 on ALDH-positive cells in MCF-7 cells. Data represent mean ± s.d. from three independent replicate experiments. P-values were calculated by a two-sided unpaired Student’s t-test. Source data underlying Fig. 5a, c, d are provided in a Source Data file.
!" ' ' '! !" ' ' '! !" ' ' '!!" ' ' '!!" ' ' '!!" ' ' '!!" ' ' '!!" ' ' '! !" ' ' '! !" ' ' '! !" ' ' '! !"#$ ( % ) * '! '' '# '+ '$ '( '% […]
Main population Single cells Single cells
(negative control) Without DEAB […]
P-values are calculated using a two-sided unpaired Student’s t-test; * p < 0.05, ** p < 0.01, compared with control. b, Gating strategy of flow cytometry analysis for detecting ALDH-positive cells. All samples were analyzed by sequential gating including main population (G1), single cells (G2, G3). Negative control with DEAB was used to establish G4 (ALDH-negative cells) and G5 (ALDH-positive cells). […]
(§1) Policy information about cell lines […]
were distributed from National Cancer Institute (Frederick, MD). HT-29, MCF-7, DU-145 and PC-3 were purchased from […]

adult Drosophila = test: toxic effect on Drosophila adult (injection, unmoving flies); format: in vivo, Drosophila melanogaster; details: for Number of Unmoving flies (%) Mean: 1 mM, 1h, adult flies injected (3.5 ng each), solvent 5
Excerpt: We next tested the ability of the DDPs to affect the innate immune pathways, namely, the Toll and immune deficiency (IMD) pathways, which are the front line of defence against infection by microorganisms. […] Thus, we successfully found unique biological activity against Drosophila in 5 and 21, which may potentially be developed as insecticides.
Fig. 6 Biological activity against Drosophila. a Inhibitory effect of compound 21 on the IMD pathway Drosophila l(2)mbn cells were stimulated with heat-killed E. coli and the activity of the Attacin promoter, a read-out of the activation of the IMD pathway, was monitored by a luciferase assay. Data are means ± SEM of triplicate wells from a single experiment and are representative of two independent experiments. b Toxic effect of compound 5 on Drosophila adult. […] Data are the means ± SEM of triplicate samples from a single experiment and are representative of two independent experiments. Source data underlying Fig. 6a, b are provided in a Source Data file.
as §1
were distributed from National Cancer Institute (Frederick, MD). HT-29, MCF-7, DU-145 and PC-3 were purchased from American Type Culture Collection (Baltimore, MD). MKN-1, MKN-74, MKN-45, MKN-A and MKN-B were purchased from Immuno-Biological Laboratories, Co., Ltd., Gumma, Japan). St-4, HBC-4, HBC-5 and BSY-1 were established in Japanese Foundation for Cancer Research (Tokyo, Japan).
DL-1 and l(2)mbn were gifted from Dr. Kurata in Tohoku University.
MCF-7 (Fig.5 and Supplementary Fig. 46) were obtained from American Type Culture Collection.
HeLa-CD4-LTR/ !-galactosidase (MAGI) cells provided by Dr. J. Overbaugh through the NIH AIDS Research and Reference […]
PC-3) were authenticated by STR analysis.
DL-1 and l(2)mbn are Drosophila cell lines, and were not authenticated.
MCF-7 cells (for Fig. 5 and Supplementary Fig. 46) were authenticated by STR analysis to evaluate antiproliferative activity […]
MAGI cells were authenticated by the NIH.
Mycoplasma contamination All the cell lines tested negative for mycoplasma contamination. […]

Compound: C=C1CCC2C(C)(CCC=C(C)C)C(O)CCC2(C)C1Cc1c(OC)oc(C)c(C)c1=O (stereo not shown) [Compound 11]
- population of ALDH-positive cells [1]: reduced the population of ALDH-positive cells
- ALDH-positive cells ave (fold) [1]: 0.40 fold
- ALDH-positive cells ave [1]: 0.57%
- ALDH-positive cells (%) [1]: 0.4% and 0.9%

Compound: C=C1CC[C@@H]2[C@](C)(CC[C@H]3O[C@H](C=C(C)C)C[C@@]23C)[C@@H]1Cc1c(OC)oc(C)c(C)c1=O [Compound 22, O-methylated higginsianin A]
- population of ALDH-positive cells [1]: reduced the population of ALDH-positive cells
- ALDH-positive cells ave (fold) [1]: 0.38 fold
- ALDH-positive cells ave [1]: 0.53%
- ALDH-positive cells (%) [1]: 0.4% and 0.5% and 0.7%

Compound: C=C1CC[C@H]2[C@]3(C)C[C@@H](C=C(C)C)O[C@H]3CC[C@]2(C)[C@@H]1Cc1c(O)c(C)c(C)oc1=O [Compound 5, subglutinol A]
- Number of Unmoving flies (%) Mean (adult Drosophila): 58.3333%
- paralysing activity against adult Drosophila (adult Drosophila; 1 h after injection): efficiently paralysed adult Drosophila

Compound: C=C1CCC2C(C)(CCC=C(C)C)C(O)CCC2(C)C1Cc1c(OC)oc(CO)c(C)c1=O (stereo not shown) [Compound 12]
- ALDH (+) Cell number (10^4 cells) ave ([1]; MCF-7, 0.1 µM): 0.68 10^4 cells
- ALDH (-) Cell number (10^4 cells) ave ([1]; MCF-7, 0.1 µM): 96.66 10^4 cells
- ALDH (+) Cell number ave (fold) ([1]; MCF-7, 0.1 µM): 0.42 fold
- ALDH (-) Cell number ave (fold) ([1]; MCF-7, 0.1 µM): 0.72 fold
- ALDH (+) Cell number (10^4 cells) ([1]; MCF-7, 0.1 µM): 0.81 10^4 cells and 0.72 10^4 cells and 0.50 10^4 cells
- ALDH (-) Cell number (10^4 cells) ([1]; MCF-7, 0.1 µM): 89.19 10^4 cells and 102.28 10^4 cells and 98.51 10^4 cells
- ALDH (+) Cell number (10^4 cells) ave ([1]; MCF-7, 0.3 µM): 0.09 10^4 cells
- ALDH (-) Cell number (10^4 cells) ave ([1]; MCF-7, 0.3 µM): 33.24 10^4 cells
- ALDH (+) Cell number ave (fold) ([1]; MCF-7, 0.3 µM): 0.0565 fold
- ALDH (-) Cell number ave (fold) ([1]; MCF-7, 0.3 µM): 0.25 fold
- ALDH (+) Cell number (10^4 cells) ([1]; MCF-7, 0.3 µM): 0.054 10^4 cells and 0.12 10^4 cells and 0.10 10^4 cells
- ALDH (-) Cell number (10^4 cells) ([1]; MCF-7, 0.3 µM): 26.95 10^4 cells and 38.88 10^4 cells and 33.90 10^4 cells
- population of ALDH-positive cells [1]: reduced the population of ALDH-positive cells
- ALDH-positive cells ave (fold) [1]: 0.29 fold
- ALDH-positive cells ave [1]: 0.40%
- ALDH-positive cells (%) [1]: 0.4% and 0.6% and 0.2%
- ALDH (+) Cell number (10^4 cells) ave ([1]; MCF-7, 1 µM): 0.09 10^4 cells
- ALDH (-) Cell number (10^4 cells) ave ([1]; MCF-7, 1 µM): 23.57 10^4 cells
- ALDH (+) Cell number ave (fold) ([1]; MCF-7, 1 µM): 0.06 fold
- ALDH (-) Cell number ave (fold) ([1]; MCF-7, 1 µM): 0.18 fold
- ALDH (+) Cell number (10^4 cells) ([1]; MCF-7, 1 µM): 0.14 10^4 cells and 0.08 10^4 cells and 0.05 10^4 cells
- ALDH (-) Cell number (10^4 cells) ([1]; MCF-7, 1 µM): 23.86 10^4 cells and 20.92 10^4 cells and 25.95 10^4 cells
- cytotoxicity against ALDH-positive cells ([1]; MCF-7, lower concentrations): selective and potent cytotoxicity against ALDH-positive cells

Compound: C=C1CC[C@@H]2[C@](C)(CC[C@H]3O[C@H](C=C(C)C)C[C@@]23C)[C@@H]1Cc1c(OC)oc(CO)c(C(=O)OC)c1=O [Compound 21]
- Number of Unmoving flies (%) Mean (adult Drosophila): 11.6667%
